According to patent US9670139B2, “Telomerase activating compounds and methods of use thereof” (BEN-GURION UNIVERSITY OF THE NEGEV RESEARCH AND DEVELOPMENT …, priority 2007, dated 2017):

What was measured:
[1] = tested on: murine B-cell leukemia lymphoma (BCL1) cells; assay: BCL1 tumorigenicity in (BALB/c×C57BL/6)F1 mice; assay type: in vivo, mouse; details: mice inoculated with 10^5 BCL1 cells; Compound 77 10 mM
Description: (BALB/c×C57BL/6)F1 mice were inoculated with 10^5 murine B-cell leukemia lymphoma (BCL1) cells. Splenomegaly and lymphocytosis (leukemia) developed in all controls and in mice treated with telomerase-activating compounds (40 or 80 mg/kg).

C. elegans = assay: Lifespan extension of nematodes (C. elegans); assay type: in vivo; details: 50 micromolar; for Lifespan extension (%): Table 2, versus untreated controls; for Lifespan %: table of scaffold drawing 36, mean lifespan versus control
Description: Nematodes (C. elegans) were administered tri-phenyl telomerase-activating compounds presented in the following tables, and telomerase activity and/or expression was measured in terms of nematode lifespan extension. Nematodes were grown with the activators at 50 micromolar concentration, and the mean, maximum and half-life for Compound 68 and Compound 77, two representative molecules, was measured versus that of the control (FIG. 8). Values represent mean lifespan.
Survival of the C. elegans, a nematode that normally survives for 12-14 days, represents an acceptable model for studying life extension. Nematodes were administered tri-phenyl telomerase-activating compounds and their effect on the nematode lifespan extension was determined. Nematodes were grown with the activators at a concentration of 50 micromolar, and mean, maximum and half-life were measured in comparison with untreated controls. Lifespan increased by 13-43% (Table 2), and the median lifespan increased approximately 2-fold (from 12 days to 22 days, as shown in FIG. 8).

[2] = Graft-versus-host disease (GVHD) induced by C57BL/6 spleen cells; assay type: in vivo, mouse; details: F1 mice inoculated with 30×10^6 C57BL/6 spleen cells
Source text: (BALB/c×C57BL/6)F1 mice were inoculated with 30×10^6C57BL/6 spleen cells for induction of GVHD.

telomerase [3] = assay: Telomerase expression in rat brain cortex after subcutaneous injection (immunofluorescence); assay type: in vivo
Source text: The effect of compounds of the present invention injected subcutaneously into female rats and adult male mice on telomerase expression in various regions of the brain was examined.

telomerase [4] = assay: Telomerase expression in mouse brain regions after subcutaneous injection (immunofluorescence); assay type: in vivo; details: three-month-old male mice, 24 h
Description: Compound 79 was injected subcutaneously into three-month-old male mice. The mice were sacrificed 24 h later and the cortex, cerebellum, hippocampus, hypothalamus, brain stem and olfactory bulb isolated and subjected to immunofluorescence. […] This activation appeared to be specific for certain neuronal cells.

mouse cerebellum = assay: Prevention of glutamate-induced apoptosis in mouse cerebellum slices; assay type: in vivo; details: 6 mg/kg, 24 h; slices treated with glutamate 30 min
Description: The ability of compounds of the present invention to prevent glutamate-induced apoptosis in mouse cerebellum was examined. Mice were injected with 6 mg/kg of Compound 79 or with vehicle only. Mice were sacrificed 24 h after treatment and their brains were removed. Cerebellum slices were prepared and subjected to glutamate treatment at various concentrations for 30 min. Sections were stained with propidium iodide and the number of apoptotic cells was counted and calculated using specific software (Jimage). Prevention of apoptosis in mice treated with compounds of the present invention was calculated as a percentage relative to control mice (FIG. 13). This supports a role for compounds of the present invention in treating seizures, stroke, Alzheimer's disease, epilepsy, schizophrenia, and alcohol and opiate addition.

telomerase [5] = assay: Telomerase expression in mouse heart protein extracts; assay type: in vivo; details: after injection, one mouse
Description: The activation of telomerase by compounds of the present invention in heart protein extracts derived from one mouse was measured (FIG. 14). […] This supports a role for compounds of the present invention in treating infarct, ischemia, myocarditis, etc.

Human keratinocytes = assay: Proliferation and survival of senescent human keratinocytes; assay type: cell-based; details: fifth passage keratinocytes
Description: Human keratinocytes which had lost their ability to proliferate (in their fifth passage) were obtained from a local skin bank and treated with Compound 68 for 24 h. Cell viability, cell number and morphology was examined.

telomerase [6] = target: T1, telomerase (Homo sapiens, UniProt O14746); assay: Real time PCR quantification of telomerase activity in hMSC nuclear extracts; assay type: cell-based; parameters: endogenous in cells; details: 250 nM
T1 sequence (O14746 whole entry): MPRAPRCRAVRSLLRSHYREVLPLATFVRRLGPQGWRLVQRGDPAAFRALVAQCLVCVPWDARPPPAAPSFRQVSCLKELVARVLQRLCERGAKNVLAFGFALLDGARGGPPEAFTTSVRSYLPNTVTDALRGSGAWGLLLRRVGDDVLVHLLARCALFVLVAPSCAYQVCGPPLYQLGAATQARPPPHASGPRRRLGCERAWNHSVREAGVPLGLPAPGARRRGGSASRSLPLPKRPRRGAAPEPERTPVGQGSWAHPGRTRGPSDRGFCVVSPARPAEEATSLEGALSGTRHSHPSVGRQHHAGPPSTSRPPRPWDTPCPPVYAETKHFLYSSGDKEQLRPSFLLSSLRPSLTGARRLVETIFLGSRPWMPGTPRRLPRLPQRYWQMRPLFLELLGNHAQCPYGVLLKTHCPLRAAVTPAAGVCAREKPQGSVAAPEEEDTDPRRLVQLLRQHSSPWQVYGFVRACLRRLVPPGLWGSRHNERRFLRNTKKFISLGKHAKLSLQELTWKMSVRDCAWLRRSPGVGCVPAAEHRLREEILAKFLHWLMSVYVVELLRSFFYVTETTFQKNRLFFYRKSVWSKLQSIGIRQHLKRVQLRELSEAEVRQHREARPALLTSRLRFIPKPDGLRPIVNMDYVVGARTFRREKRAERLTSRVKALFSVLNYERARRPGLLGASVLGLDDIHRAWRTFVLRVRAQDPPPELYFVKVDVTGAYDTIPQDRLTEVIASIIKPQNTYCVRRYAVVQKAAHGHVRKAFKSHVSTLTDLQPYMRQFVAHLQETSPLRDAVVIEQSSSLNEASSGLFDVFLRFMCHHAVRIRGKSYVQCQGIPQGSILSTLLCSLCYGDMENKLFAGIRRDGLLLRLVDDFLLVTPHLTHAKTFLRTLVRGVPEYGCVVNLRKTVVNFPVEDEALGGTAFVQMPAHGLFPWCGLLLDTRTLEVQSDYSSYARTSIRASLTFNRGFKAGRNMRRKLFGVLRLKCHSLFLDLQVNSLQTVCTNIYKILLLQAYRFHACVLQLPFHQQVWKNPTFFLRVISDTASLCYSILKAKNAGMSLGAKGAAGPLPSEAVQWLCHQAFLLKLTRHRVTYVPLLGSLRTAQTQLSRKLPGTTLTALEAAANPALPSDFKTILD
Description: FIG. 5: Activation of telomerase expression in hMSC by compounds of the present invention. A.—hMSC were treated with 250 nM of Compounds 79, 77 and 68 for 6 hours. Immunofluorescence was performed with anti-hTERT antibody (red) and the nucleus was stained with DAPI (blue). B. hMSC treated with compound 79 for 6 and 24 h. Telomerase activity was measured by real time PCR using a quantitative telomerase detection kit (Allied Biotech Inc., USA).
The possibility that compounds of the present invention enhance hMSC survival and proliferation by activation of TERT was examined by culturing hMSC (p 3) in a tissue culture chamber slide at 17×10^3 cells/well for 60 h. Compounds of the present invention were added for 6 h with fresh medium. Immunofluorescence with anti-hTERT antibody (first antibody) and cy3 fluorescent secondary antibody was carried out. The nucleus was stained with DAPI. Compounds of the present invention activated telomerase expression in hMSC (FIG. 5). […] Degree of activation of telomerase expression was Compound 68>79>77. Quantification of telomerase activity in hMSC was performed by Real time PCR (Quantification telomerase detection kit) in nuclear extracts derived from hMSC treated with compound 79 (250 nM) for 6 or 24 h. Compound 79 enhanced telomerase activity in hMSC by 12- or 6-fold in a time-dependent manner (FIG. 5B).

telomerase [7] = target: T1, telomerase; assay: Telomerase activity in RPE cells (quantitative telomerase detection kit, real time PCR); assay type: cell-based; parameters: endogenous in cells; host or cells: human retinal pigmented epithelial (RPE) cells; details: FIG. 7B
Source text: FIG. 7: A. The effect of compounds of the present invention on human retinal pigmented epithelial cells under oxidative stress. B. The effect of compounds on telomerase activity in RPE cells (measured by a quantitative telomerase detection kit-real time PCR).
Chronic exposure of human retinal pigmented epithelial (RPE) cells to oxidative stress predisposes them to the development of age-related macular degeneration (AMD). Human RPE cells were exposed to oxidative stress by treatment with H2O2 (1 mM) for 24 hours, and H2O2 (0.5 mM) for another 24 hours. The cells were then treated daily for two days with the indicated compounds in the absence of H2O2. Increased cell growth was observed as a consequence of treatment with the compounds (FIG. 7A). Telomerase activity was enhanced in RPE cells treated with compounds 68 and 79 by 30- and 50-fold, respectively (FIG. 7B).

SMILES: CN(C)Cc1cc(C(C)(c2cc(CN(C)C)c(O)c(CN(C)C)c2)c2cc(CN(C)C)c(O)c(CN(C)C)c2)cc(CN(C)C)c1O [Compound 77]
- Survival Median (range) [1]: 26 (22-41)
- Lifespan extension (%) (C. elegans): 43%
- Lifespan % (C. elegans): 43%
- signs of acute GVHD (weight loss) versus untreated controls [2]: more severe signs of acute GVHD
- expression of telomerase in the brain cortex (telomerase [3]): significantly activated

SMILES: CCOCc1cc(C(C)(c2cc(COCC)c(O)c(COCC)c2)c2cc(COCC)c(O)c(COCC)c2)cc(COCC)c1O [Compound 79]
- telomerase expression in motor-neuronal cells of the brain stem (telomerase [4]): increased telomerase expression
- telomerase expression in the various brain regions (telomerase [4]): significantly and dramatically increased
- glutamate-induced apoptosis in mouse cerebellum (mouse cerebellum): Prevention of glutamate-induced apoptosis
- heart telomerase expression (telomerase [5]): significant increase
- cell survival effect on keratinocytes (comparison) (Human keratinocytes): better cell survival effect than Compound 68
- Lifespan extension (%) (C. elegans): 16%
- Lifespan % (C. elegans): 16%
- enhancement of telomerase activity in hMSC (telomerase [6]; 6 h): 12 fold
- enhancement of telomerase activity in hMSC (telomerase [6]; 24 h): 6 fold
- enhancement of telomerase activity in RPE cells (telomerase [7]): 50 fold
- expression of telomerase in the brain cortex (telomerase [3]): significantly activated
